Source: paper PMC10573175 (International Journal of Molecular Sciences, 2023)
Values belong to the compound of their own block, whether it stands above or below them.

Assays:
[1] = biological target: T1, human serum albumin (HSA) (Homo sapiens, UniProt P02768); test: Intrinsic fluorescence quenching of HSA by ceftazidime (Stern–Volmer, modified Stern–Volmer, Van't Hoff analysis); type: binding; details: for KSV (Stern–Volmer quenching constant): 20 mM tris buffer pH 7.4, excitation 295 nm; for ΔG (free energy change of binding): Van't Hoff
Description: The intrinsic fluorescence of HSA is mainly contributed by a single tryptophan residue, which can be excited at 295 nm to give the maximum fluorescence emission at 340 nm. […] The corrected fluorescence data are used to further analyze the results given in the next section.
The fluorescence quenching is the result of either stable complex formation between fluorophore and the quencher or there is a collisional encounter between them. The first phenomenon is termed as static quenching, while the second one is known as dynamic quenching. […] The involvement of the quenching mechanism, either static or dynamic, can be understood with the help of temperature variation. Dynamic quenching increases in increasing the temperature while static quenching constant decreases in such a case.
The binding constant (Kb) and number of binding sites (n) can also be estimated using the modified Stern–Volmer equation as:(2) logF0−F/F=logKb+nlog[Q].
Van’t Hoff equations (given in Equations (S2) and (S3)) can be used to evaluate the thermodynamic parameters such as the free energy change (ΔG), enthalpy change (ΔH), and entropy change (ΔS) of a process using the values of physical parameters at equilibrium. Herein, we used the binding constant, Kb, at three different temperatures to fit into the Equation (S1) to obtain the values of ΔH from the slope and ΔS from the intercept of the plot of ln Kb vs. 1/T (Figure 5A), which are given in Table 1. The values of ΔH and ΔS were, further, used to calculate ΔG. From the evaluation of thermodynamic parameters, involvement of the major forces in the binding can be understood along with the feasibility of the interaction. According a to report published by Ross and Subramanian, hydrogen bonding interactions dominate when the values of ΔH and ΔS are negative, whereas positive values of these parameters can be observed in case of hydrophobic interactions.
UV-visible studies were performed on a Perkin Elmer Lambda 45 spectrophotometer (Germany) within the range of 200 nm to 500 nm as required. Intrinsic fluorescence measurements were performed on a Hitachi F 7000 spectrofluorometer (Japan) equipped with the programmable temperature controller. The excitation and emission slit widths were adjusted to 5 nm with a PMT voltage of 500 V. Circular dichroism (CD) spectrophotometric recordings were obtained with a Jasco J-815 spectropolarimeter (Japan) using a quartz cuvette of […]. The studies were carried out in the 20 mM tris buffer of pH 7.4 and at 25 °C unless stated otherwise. Autodock 4.2 [36] was used to perform molecular docking and MD simulations were performed through GROMACS 2021.3 [37] with the utilization of the CHARMM force field for a production run of 100 ns. The detailed methodology is given in the Supplementary Materials. […]

[2] = biological target: T1, human serum albumin (HSA); test: Competitive binding site assay with site markers warfarin, ibuprofen and hemin (fluorescence quenching); details: for KSV: 25 °C
Description: DS1 is located in subdomain IIA, while DS2 is located in subdomain IIIA. There are several molecules that have the specific affinities towards these binding sites; for instance, warfarin binds strongly at DS1 and ibuprofen binds at DS2 [12]. There is another binding site within HSA, which is also known as fatty acid binding site 1, located in subdomain IB, which has a precise affinity for hemin [12]. Therefore, these molecules could be considered as the specific site markers for these sites and can be used to see the competitive binding between the molecule under consideration. […] The corresponding quenching and binding plots are given in Figure 7A,B and the calculated values of quenching and binding constants are shown in Table 2. […] To obtain more understanding on the binding site, we performed computational studies using molecular docking and molecular dynamics simulations, which will be described in the next sub-sections.
(§1) UV-visible studies were performed on a Perkin Elmer Lambda 45 spectrophotometer (Germany) within the range of 200 nm to 500 nm as required. Intrinsic fluorescence measurements were performed on a Hitachi F 7000 spectrofluorometer (Japan) equipped with the programmable temperature controller. The excitation and emission slit widths were adjusted to 5 nm with a PMT voltage of 500 V. Circular dichroism (CD) spectrophotometric recordings were obtained with a Jasco J-815 spectropolarimeter (Japan) using a quartz cuvette of […]. The studies were carried out in the 20 mM tris buffer of pH 7.4 and at 25 °C unless stated otherwise. Autodock 4.2 [36] was used to perform molecular docking and MD simulations were performed through GROMACS 2021.3 [37] with the utilization of the CHARMM force field for a production run of 100 ns. The detailed methodology is given in the Supplementary Materials.

[3] = biological target: T1, human serum albumin (HSA); test: Effect of paracetamol on HSA–ceftazidime binding (fluorescence quenching, Lineweaver–Burk analysis); details: for KSV: 25 °C
Protocol: as §1

HSA = HSA (Homo sapiens, UniProt P02768); test: Far-UV circular dichroism spectroscopy of HSA with ceftazidime; details: far-UV CD, dependent on drug concentration
Protocol: as §1
Non-steroidal anti-inflammatory drug effect on the binding of p lasma […]
on Perkin-Elmer Lambda 45 Spectrophotometer equipped with autosampler and water-
bath with temperature controller. Quartz cuvettes of 1 cm path length were used for the
Fluorescence measurements were performed on Hitachi spectrofluorometer (Model […]
fluorescence spectra were collected at 25 °C with a cell of path length 1 cm. […]
and emission slits were set at 5 nm. Intrinsic fluorescence was measured by exciting […]

[4] = Van't Hoff plot of ln Kb vs. 1/T, 25–45 °C

T1 sequence (P02768 25-609): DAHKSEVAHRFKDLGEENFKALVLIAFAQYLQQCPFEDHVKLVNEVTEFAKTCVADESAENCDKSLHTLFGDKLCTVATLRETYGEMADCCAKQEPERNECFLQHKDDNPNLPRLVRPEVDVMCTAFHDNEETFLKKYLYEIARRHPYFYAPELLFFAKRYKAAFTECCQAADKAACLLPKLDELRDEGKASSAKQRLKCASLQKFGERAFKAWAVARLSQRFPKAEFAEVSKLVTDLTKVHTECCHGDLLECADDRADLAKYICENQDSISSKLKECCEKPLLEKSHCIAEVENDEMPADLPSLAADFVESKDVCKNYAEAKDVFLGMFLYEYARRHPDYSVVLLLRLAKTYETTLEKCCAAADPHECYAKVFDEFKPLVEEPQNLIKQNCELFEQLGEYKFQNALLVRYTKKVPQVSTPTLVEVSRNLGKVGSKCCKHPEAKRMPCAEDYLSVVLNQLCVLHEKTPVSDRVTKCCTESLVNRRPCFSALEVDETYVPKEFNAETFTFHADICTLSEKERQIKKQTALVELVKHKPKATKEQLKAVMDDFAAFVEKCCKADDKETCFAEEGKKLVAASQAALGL
Sequence of HSA (P02768 25-609): as above

n (number of binding sites) ([1]; 25 °C): 0.96 | KSV (Stern–Volmer quenching constant) ([1]; 25 °C): 2.3 × 10^3 M^–1 | ΔG (free energy change of binding) ([1]; 25 °C): -4.4 kcal/mol | n (number of binding sites) ([1]; 35 °C): 1.01 | KSV (Stern–Volmer quenching constant) ([1]; 35 °C): 2.6 × 10^3 M^–1 | ΔG (free energy change of binding) ([1]; 35 °C): -4.95 kcal/mol | n (number of binding sites) ([1]; 45 °C): 1.09 | KSV (Stern–Volmer quenching constant) ([1]; 45 °C): 3.2 × 10^3 M^–1 | ΔG (free energy change of binding) ([1]; 45 °C): -5.5 kcal/mol | quenching mechanism ([1]; KSV increased on increasing the temperature): dynamic quenching mechanism | ΔH (enthalpy change of binding) [1, 4]: 11.8 kcal/mol | ΔS (entropy change of binding) [1, 4]: 227.8 J mol^−1 K^−1 | KSV ([2]; in the presence of hemin (site marker subdomain IB)): 1.3 × 10^3 M^–1 | KSV ([2]; in the presence of ibuprofen (site marker DS2)): 2.3 × 10^3 M^–1 | KSV ([2]; in the presence of warfarin (site marker DS1)): 1.7 × 10^3 M^–1 | preferred binding site within HSA ([2]; site markers and docking): subdomain IB | KSV ([3]; in the presence of 50 µM paracetamol): 2.2 × 10^3 M^–1 | KSV ([3]; in the presence of 100 µM paracetamol): 1.8 × 10^3 M^–1 | KSV ([3]; in the presence of 150 µM paracetamol): 1.7 × 10^3 M^–1 | KSV ([3]; in the presence of 250 µM paracetamol): 1.6 × 10^3 M^–1 | KSV ([3]; in the presence of 500 µM paracetamol): 1.3 × 10^3 M^–1 | effect on secondary structure of HSA (HSA): partial unfolding of the protein
SMILES: CC(C)(O/N=C(\C(=O)N[C@@H]1C(=O)N2C(C(=O)[O-])=C(C[n+]3ccccc3)CS[C@H]12)c1csc(N)n1)C(=O)O [Ceftazidime]

type of inhibition of HSA–ceftazidime binding ([3]; Lineweaver–Burk plots): non-competitive
SMILES: CC(=O)Nc1ccc(O)cc1 [Paracetamol, paracetamol]
